# From US11352396B2, “Antimicrobial peptides and methods of using same” (Zoetis Services LLC, priority 2017, dated 2022)
# Experiments:
# [1] = tested on: Canine-derived epithelial keratinocyte (CPEK) cells; format: cell-based
# Summary of the method: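 CPEK cells were dosed with peptides at 50 μM to 0.05 μM and incubated overnight at 37 °C, 5% CO2. Viability was read by CellTiter-Glo luminescence. Percent effect was normalised to 0.1% Triton X-100 (high) and phosphate buffer alone (zero).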
# cRBC = format: cell-based, canine
# Summary of the method: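 Washed, plasma-free red cells were incubated with peptide titrated from 50 µM to 0.05 µM for 1 h at 37 °C. Hemolysis was read as OD at 405 nm, scaled between phosphate buffer alone (0%) and 1% Triton X-100 (100%).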
# [2] = tested on: MRSP (Methicillin-Resistant Staphylococcus pseudintermedius); test: MIC against selected strains of MRSP; format: cell-based; design: key to MIC MRSP 72192 / MIC MRSP 76923 / MR 71994 / Mr 88493 / MR 72035 / MR 72192 / MR 76923 / MR 79882 / MR 80279 / MR 81926 / MR 86002 / MR 87665: MIC in μM (visual, first well with no growth); conditions: for MR 71994: MRSP strain 71994, Table 6; for MR 72035: MRSP strain 72035, Table 6; for MR 72192: MRSP strain 72192, Table 6; for MR 76923: MRSP strain 76923, Table 6; for MR 79882: MRSP strain 79882, Table 6; for MR 80279: MRSP strain 80279, Table 6; for MR 81926: MRSP strain 81926, Table 6; for MR 86002: MRSP strain 86002, Table 6; for MR 87665: MRSP strain 87665, Table 6; for Mr 88493: MRSP strain 88493, Table 6
# Summary of the method: (§1)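 Broth microdilution MIC following CLSI VET01-S2: peptides titrated 50 μM to 0.05 μM in assay, inoculum a 0.5 McFarland suspension diluted 1:250 in Mueller-Hinton broth. Incubated overnight (18–20 h); MIC taken visually as lowest concentration without visible growth.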
# S. aureus ATCC 29213 = format: cell-based; design: key to SA 29213: MIC in μM (lowest conc. with no visible growth); conditions: S. aureus 29213, Table 6
# Protocol: (§2) Peptides according to SEQ ID NOs as listed in Table 1 were prepared by a commercial manufacturer (CS Bio, Menlo Park, Calif.) using solid phase synthesis. Antimicrobial activity was assessed by determining the Minimal Inhibitory Concentration (MIC) against S. aureus and E. coli. Briefly, Microbroth MICs were performed using CLSI methodology (VET01-S2). For S. aureus and E. coli ATCC strains, TSA with 5% lysed horse blood agar was used for overnight culturing at 37° C. ambient air. A 0.5 mM stock for each peptide was made with cell culture water, 0.01% acetic acid and serially diluted and spotted (10 μL) in a 96-well plate for in assay dose titration concentration of 50 μM to 0.05 μM. 0.5 McFarland Standard of each strain was diluted 1:250 in Mueller-Hinton Broth (MHB). 90 μL of culture suspension was then added upon drug in the 96-well plate for overnight incubation for 18-20 hours. The MIC was determined visually at the first well of no visible growth at the corresponding concentration.
# [3] = tested on: MSSP (Methicillin-Susceptible Staphylococcus pseudintermedius); test: MIC against selected strains of MSSP; format: cell-based; design: MIC MSSP 49051 / MIC MSSP 81923 / MIC MSSP 84250 / Effect on MSSP 86000 / Effect on MSSP 72036 / Effect on MSSP 78032: unit not given beside the values; Effect on MSSP 71990 / Effect on MSSP 86001 / Effect on MSSP 72191 / Effect on MSSP 76986 / Effect on MSSP 77378 / Effect on MSSP 81923 / Effect on MSSP 84250 / Effect on MSSP 84658: unit: µM; conditions: for SP 49051: S. pseudintermedius 49051, Table 6; for Effect on MSSP 71990: strain 71990, Table 5; for Effect on MSSP 72036: strain 72036, Table 5; for Effect on MSSP 72191: strain 72191, Table 5; for Effect on MSSP 76986: strain 76986, Table 5; for Effect on MSSP 77378: strain 77378, Table 5; for Effect on MSSP 78032: strain 78032, Table 5; for Effect on MSSP 81923: strain 81923, Table 5; for Effect on MSSP 84250: strain 84250, Table 5; for Effect on MSSP 84658: strain 84658, Table 5; for Effect on MSSP 86000: strain 86000, Table 5; for Effect on MSSP 86001: strain 86001, Table 5
# Summary of the method: as §1
# E. coli ATCC 25922 = format: cell-based; conditions: E. coli 25922, Table 6
# Protocol: as §2
Substance,CPEK (50 μM) [1],cRBC (50 μM) (cRBC),MR 71994 [2],MR 72035 [2],MR 72192 [2],MR 76923 [2],MR 79882 [2],MR 80279 [2],MR 81926 [2],MR 86002 [2],MR 87665 [2],Mr 88493 [2],SA 29213 (S. aureus ATCC 29213),SP 49051 [3],Effect on MSSP 71990 [3],Effect on MSSP 72036 [3],Effect on MSSP 72191 [3],Effect on MSSP 76986 [3],Effect on MSSP 77378 [3],Effect on MSSP 78032 [3],also measured
29 (PKWCFRVCYRGICYRRCRD; Artificial Antimicrobial peptide) [compound 29],17.5,68.2,1.6,1.6,0.8,1.6,0.8,0.8,0.8,1.6,1.6,1.6,3.1,1.6,1.6,1.6,1.6,1.6,0.8,0.8,Effect on MSSP 81923 [3]: 0.8; Effect on MSSP 84250 [3]: 0.8; Effect on MSSP 84658 [3]: 1.6; Effect on MSSP 86000 [3]: 1.6; Effect on MSSP 86001 [3]: 1.6; EC 25922 (E. coli ATCC 25922): 1.6 µM
30 (PWCFRVCYRGICYRRCR; Artificial Antimicrobial peptide) [compound 30],17.0,63.5,1.6,0.8,0.8,0.8,0.8,0.8,1.6,1.6,1.6,1.6,3.1,1.6,0.8,0.8,1.6,0.8,0.8,0.8,Effect on MSSP 81923 [3]: 0.8; Effect on MSSP 84250 [3]: 0.8; Effect on MSSP 84658 [3]: 1.6; Effect on MSSP 86000 [3]: 1.6; Effect on MSSP 86001 [3]: 1.6; EC 25922 (E. coli ATCC 25922): 1.6 µM
31 (PWCFRVCYRGICYRRCRD; Artificial Antimicrobial peptide) [compound 31],11.0,43.5,1.6,1.6,1.6,1.6,1.6,1.6,1.6,1.6,1.6,1.6,3.1,1.6,1.6,1.6,1.6,1.6,1.6,1.6,Effect on MSSP 81923 [3]: 1.6; Effect on MSSP 84250 [3]: 1.6; Effect on MSSP 84658 [3]: 1.6; Effect on MSSP 86000 [3]: 1.6; Effect on MSSP 86001 [3]: 1.6; EC 25922 (E. coli ATCC 25922): 1.6 µM
97 (KRCFRVCYRGICYRRCRD; Artificial Antimicrobial peptide) [compound 97],12.9,31.2,1.6,3.1,3.1,1.6,1.6,3.1,1.6,3.1,3.1,3.1,6.2,3.1,3.1,3.1,3.1,1.6,1.6,3.1,Effect on MSSP 81923 [3]: 3.1; Effect on MSSP 84250 [3]: 3.1; Effect on MSSP 84658 [3]: 3.1; Effect on MSSP 86000 [3]: 1.6; Effect on MSSP 86001 [3]: 1.6; EC 25922 (E. coli ATCC 25922): 3.1 µM
98 (KWCVRVCYRGICYRRCRD; Artificial Antimicrobial peptide) [compound 98],9.3,35.0,1.6,3.1,1.6,1.6,0.8,1.6,1.6,1.6,1.6,1.6,3.1,1.6,1.6,1.6,1.6,1.6,1.6,1.6,Effect on MSSP 81923 [3]: 1.6; Effect on MSSP 84250 [3]: 1.6; Effect on MSSP 84658 [3]: 1.6; Effect on MSSP 86000 [3]: 1.6; Effect on MSSP 86001 [3]: 1.6; EC 25922 (E. coli ATCC 25922): 1.6 µM
